In assay [1] the test system is T4 Arabidopsis seed homozygous for AAD-12 (v1) spiked into wildtype (sensitive) seed. Briefly: AAD-12 (v1) as selectable marker with 2,4-D as selection agent. The assay is classed as in vivo, Arabidopsis thaliana. Particulars: applied 7 and 11 days after planting (DAP); Resistant or Sensitive identified 17 DAP. The protocol:
The ability to use AAD-12 (v1) as a selectable marker using 2,4-D as the selection agent was analyzed initially with Arabidopsis transformed as described above. Approximately 50 T4 generation Arabidopsis seed (homozygous for AAD-12 (v1)) were spiked into approximately 5,000 wildtype (sensitive) seed. Several treatments were compared, each tray of plants receiving either one or two application timings of 2,4-D in one of the following treatment schemes: 7 DAP, 11 DAP, or 7 followed by 11 DAP. Since all individuals also contained the PAT gene in the same transformation vector, AAD-12 selected with 2,4-D could be directly compared to PAT selected with glufosinate.
Treatments were applied with a DeVilbiss spray tip as previously described. Plants were identified as Resistant or Sensitive 17 DAP.

The test system of assay [2] is AAD-2 (v1) transformed T1 Arabidopsis. The experiment in a line: 2,4-D dose response of AAD-2 (v1) transformed T1 Arabidopsis. Type of assay: in vivo, Arabidopsis thaliana. Particulars: 200 g ae/ha 2,4-D. The protocol: Freshly harvested T1 seed transformed with a plant optimized AAD-12 (v1) or native AAD-2 (v1) gene were planted and selected for resistance to glufosinate as previously described Plants were then randomly assigned to various rates of 2,4-D (50-3200 g ae/ha). Herbicide applications were applied by track sprayer in a 187 L/ha spray volume. 2,4-D used was the commercial dimethylamine salt formulation (456 g ae/L, NuFarm, St Joseph, Mo.) mixed in 200 mM Tris buffer (pH 9.0) or 200 mM HEPES buffer (pH7.5).

Assay [3] concerns wild-type rice (Clearfield 131). Briefly: Field tolerance of rice, wild-type. The assay is classed as in vivo, Oryza sativa. Particulars: for % Visual injury 7DAT / % Visual injury 15DAT: Wild-type Clearfield. The protocol: A field level tolerance trial was conducted with AAD-12 (v1) event pDAB4101[20] and one wild-type rice (Clearfield 131) at Wayside, Miss. (a non-transgenic imidazolinone-resistant variety). The experimental design was a randomized complete block design with a single replication. […] Within each herbicide treatment, two rows of T1 generation pDAB4101[20] and two rows of Clearfield rice were planted using a small plot drill with 8-inch row spacing. The pDAB4101[20] rice contained the AHAS gene as a selectable marker for the AAD-12(v1) gene. Imazethapyr was applied at the one leaf stage as selection agent to remove any AAD-12 (v1) null plants from the plots. Herbicide treatments were applied when the rice reached the 2 leaf stage using compressed air backpack sprayer delivering 187 L/ha carrier volume at 130-200 kpa pressure. […]

In a further assay the target is T1, AAD-12 (v2) (Delftia acidovorans, UniProt P83309).
T1 construct: made in house; host or cells: Pseudomonas fluorescens strain MB324 (construct pDAB739)
The experiment in a line: Chloropyridinol detection assay (absorbance at 325 nm). The assay is classed as biochemical. The source says: AAD-12 action on potential substrates such as the herbicide triclopyr containing a substituted pyridine (rather than benzene rings) will release a pyridinol on cleavage of the aryloxyalkanoate bond. Pyridinols were not detected using the aminoantipyrine/ferricyanide phenol detection described in the preceding section. […] This was used to create a continuous microplate-based spectrophotometric assay.
All five pyridyloxyalkanoates were cleaved to release pyridinols by AAD-12 (v2). The rates for the oxypropionate substrates 116844 and 91767 were somewhat faster than those for the corresponding acetates (triclopyr and 93833 respectively) indicating a preference of AAD-12 (v2) for oxypropionate over oxyacetate side chains.

The test system of assay [4] is Untransformed control corn (5XH751×Hi II). Briefly: Brace root injury of untransformed control corn after 2,4-D DMA. Type of assay: in vivo, Zea mays. The conditions noted are these: 2240 g ae/ha 2,4-D DMA, V3-V4 stage, 14DAT. The source says: T1 AAD-12 (v1) seed were planted into 3-inch pots containing Metro Mix media and at 2 leaf stage were sprayed with 70 g ae/ha imazethapyr to eliminate nulls. Surviving plants were transplanted to 1-gallon pots containing Metro Mix media and placed in the same growth conditions as before. At V3-V4 stage the plants were sprayed in the track sprayer set to 187 L/ha at either 560 or 2240 g ac/ha 2,4-D DMA. Plants were graded at 3 and 14 DAT and compared to 5XH751×Hi II control plants. A grading scale of 0-10 (no injury to extreme auxin injury) was developed to distinguish brace root injury. Brace Root grades were taken on 14DAT to show 2,4-D tolerance. 2,4-D causes brace root malformation, and is a consistent indicator of auxinic herbicide injury in corn. […] Event “pDAB4101(0)001.001” was apparently unstable; however, the other two events were robustly tolerant to 2,4-D and 2,4-D+imazethapyr or 2,-4D+glyphosate (see Table 16).

Each structure is given as a SMILES string.

T1 sequence (P83309 whole entry, looked up, natural form): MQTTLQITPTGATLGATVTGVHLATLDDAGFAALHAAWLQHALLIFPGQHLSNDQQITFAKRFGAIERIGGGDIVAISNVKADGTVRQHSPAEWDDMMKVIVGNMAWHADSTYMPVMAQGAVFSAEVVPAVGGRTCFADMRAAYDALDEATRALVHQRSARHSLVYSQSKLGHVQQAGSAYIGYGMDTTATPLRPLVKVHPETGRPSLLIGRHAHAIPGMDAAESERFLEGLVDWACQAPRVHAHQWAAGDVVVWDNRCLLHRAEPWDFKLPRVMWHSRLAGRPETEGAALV

As to `O=C(O)COc1ccc(Cl)cc1Cl` [2,4-D, 2,4-dichlorophenoxyacetic acid], the “optimum treatment for selection of transformed plants” value in assay [1] is reported as 75 g ae/ha. The overall population injury entry in assay [2] is recorded as “about 83%”. For the same molecule, the visual injury in assay [3] (2,4-D at 2240 g ae/ha, 7DAT) came out at 30%; in assay [3] (2,4-D at 2240 g ae/ha, 15DAT), 35%. Moreover, the “% Visual injury 7DAT” value in assay [3] (2240 GM AE/HA) is reported as 15%. Moreover, the “% Visual injury 15DAT” value in assay [3] (2240 GM AE/HA) is recorded as 35%.

Consider `O=C(O)COc1nc(Cl)c(Cl)cc1Cl` [triclopyr], for which, on AAD-12 (v2) (6.8 μg AAD-12 (v2), 1 mM substrate), the “Rate relative to triclopyr” value was found to be 1. On AAD-12 (v2) (6.8 μg AAD-12 (v2), 1 mM substrate, 325 nm, background rate 1.4 mAU/min subtracted), the “Rate (mAU/min)” value was 97 mAU/min. At AAD-12 (v2) (read-out: Substrate inhibition at 2 mM), the inhibition at 2000 µM was 0%. The “rate of AAD-12 (v2) cleavage relative to that of 2,4-D” value at AAD-12 (v2) (under maximal velocity conditions) is reported as around 5%. Further, the substrate inhibition result on AAD-12 (v2) (up to 2 mM) was “No substrate inhibition”. Further, the visual injury in assay [3] (2× rate of triclopyr (560 g ae/ha), 7DAT) is recorded as 15%. In assay [3] (2× rate of triclopyr (560 g ae/ha), 15DAT), this molecule displayed a visual injury of 25%. Besides, in assay [3] (840 GM AE/HA), the “% Visual injury 7DAT” value is 30% and the “% Visual injury 15DAT” value amounted to 25%.

As for `CNC.O=C(O)COc1ccc(Cl)cc1Cl` [2,4-D DMA], in assay [4], the “Average Brace Root Injury (0-10 Scale)” value worked out at 9.

Broadly, the inhibition is the relative decrease from the control value, in per cent.

(Values after patent publication US11371055B2, “Herbicide resistance genes” (CORTEVA AGRISCIENCE LLC, priority 2005, dated 2022).)
